# Legend:
# [1] = system: mouse neural stem cells (NSC) derived from the medial ganglionic eminence of E12.5 mouse embryos; assay: Oligodendrogenesis from mouse neural stem cells in vitro (flow cytometry, immunofluorescence); type: cell-based
# From the text: Mice were bred and utilized as approved by the University of California, Irvine Institutional Animal Care and Use Committee. Dorsal forebrain cortical tissue was dissected from the medial ganglionic eminence (MGE) at embryonic day 12.5 (E12) of CD1 mice (Charles River) or Mgat5−/− C57BL/6 mice and their wildtype littermates and placed in dissection buffer comprising PBS, 0.6% glucose, and 50 U/mL Pen/Strep. Tissue from multiple embryos within the same litter were pooled, and a subsequent culture from a single litter was considered a biological repeat. The tissue was dissociated using 0.05% Trypsin-EDTA at 37° C. for 10 min, followed by treatment with soybean trypsin inhibitor (Life Technologies). Dissociated cells were re-suspended in proliferation medium comprising DMEM, 1× B27, 1× N2, 1 mM sodium pyruvate, 2 mM L-glutamine, 1 mM N-acetylcysteine, 20 ng/mL EGF (PeproTech), 10 ng/mL bFGF (PeproTech), and 2 μg/mL heparin and seeded at 150,000 cells/mL (non-tissue culture treated plastic plates) and grown as non-adherent spheres. Cell cultures were passaged approximately every 3 days using enzyme-free NeuroCult Chemical Dissociation Kit (Mouse) (StemCell Technologies). Cultures were passaged at least once prior to experimental use. For experiments, passaged cells were cultured in proliferation media (bFGF and EGF) or differentiation media (bFGF (10 ng/ml) and PDGF-AA (10 ng/ml); Life technologies) for 48 hours with or without the presence of GIcNAc (Ultimate Glucosamine, Wellesley Therapeutics) or kifunensine (GlycoSyn). Neurospheres were dispersed using the enzyme-free NeuroCult kit before being analyzed by flow cytometry using one or more of the following antibodies: anti-CD140a/PDGF-RA PE conjugate (1:200, A15785, Molecular Probes), anti-04 Alexa Fluor 488 conjugated (1:200, FAB1326G, RnD systems), Anti-GaIC Alexa Fluor 647 1:200, MAB342-AF647, Millipore), Anti-Olig2 (1:200, AB9610, Millipore) with anti-rabbit Alexa Fluor 488 (1:200, thermofisher).
# (§1) For neural stem cell (NSC) immunofluorescence, whole neurospheres were seeded onto laminin-coated coverslips (Neuvitro) in proliferation medium. After 24 hours, proliferation media was removed and replaced with differentiation medium (same components as proliferation medium but excluding EGF, bFGF, and heparin) to induce differentiation. For analysis of mouse brains, brains were incubated in 30% sucrose for at least 72 hours, embedded in OCT (Tissue-tek), frozen for at least 48 hours at −80° C., and then cut at 40 microns on a cryostat. Multiple sections from −1 bregma to −2.5 bregma were then stained with antibodies for MBP (1:100; MAB386, Millipore), Olig2 (1:200; AB9610, Millipore), CC1 (1:100; OP90, Millipore), degraded MBP (1:200, AB5864, Millipore) and Amyloid Precursor Protein (APP, 1:200; clone 22C11). After overnight incubation with primary antibody, tissues were washed and incubated with secondary antibodies: goat anti-rat Alexa-fluor 488 (1:200, Thermofisher), goat anti-rabbit TxRd (1:200, Thermofisher). APP is a marker for neuro-axonal damage while co-staining for CC1 and Olig2 are markers of mature oligodendrocytes. In order to examine the amount of myelin, slices were incubated in Fluoromyelin (1:300; F34651, Thermofisher) for 45 minutes. Images were acquired on a Keyence fluorescence microscope. Mean fluorescence intensity of the medial corpus callosum was measured using ImageJ.
# Oligodendrogenesis were examined in vitro using mouse neural stem cells (NSC) derived from the medial ganglionic eminence of E12.5 mouse embryos, where OPC's first appear. […] Consistent with increased PDGFRα surface expression, GIcNAc also promoted pre-oligodendrocyte differentiation as evidenced by augmented expression of Oligodendrocyte Transcription Factor (OLIG2) and increased numbers of 04 and GaIC positive cells (FIGS. 1A, 1B and 1C, FIGS. 5B and 5C). […]
# [2] = system: C57BL/6 mice with cuprizone induced demyelination; assay: Cuprizone induced demyelination / re-myelination model (rotarod, immunofluorescence, electron microscopy); type: in vivo, mouse
# Experimental: Cuprizone at 0.2% induces demyelination in the corpus callosum by 3 weeks, with maximum demyelination at 5-6 weeks. 8-week-old C57BL/6 mice purchased from Jackson Laboratories or 8-week old Mgat5^+/− C57BL/6 mice were treated with 0.2% Cuprizone (Sigma) mixed into milled rodent chow for 6 weeks for the active phase treatment and 5 weeks for the recovery treatment. During active phase treatment, GIcNAc (1 mg/mL) in drinking water or just drinking water (control) was provided for the last 3 weeks of Cuprizone treatment. For the recovery phase treatment, GIcNAc in drinking water or control was provided after Cuprizone treatment had been stopped. Mice were anesthetized and underwent cardiac perfusion with 4% paraformaldehyde in PBS or 4% paraformaldehyde plus 0.5% glutaraldehyde in Sodium cacodylate buffer for immunofluorescence or electron microscopic analysis respectively. Brains were then fixed overnight in perfusion solution
# One day prior to Cuprizone treatment, mice were trained on the rotarod by allowing them to run three 5-minute trials at a constant 30 rotations per minute (RPM). Mice then underwent weekly testing during Cuprizone and GIcNAc treatment on an accelerating rotarod starting at 4 rpm increasing to 40 rpm over 5 minutes. Latency for mice to fall was recorded. If a mouse was not running on the rotarod by holding on for 3 turns, this was considered a fall. For the active phase treatment, one trial was run every week. For the recovery phase treatment, 3 trials were run for each mouse each week and latencies were averaged. As expected with Cuprizone treatment performance degraded as treatment progressed.
# as §1
# Three mice from each treatment group (control and GIcNAc) were selected randomly for EM analysis (before other investigations were performed). Portions of these brains from 0 to −1 bregma were rinsed in 0.1 M cacodylate buffer overnight and again for 15 min. the next day. 2×1 mm blocks of the corpus callosum were dissected out and post-fixed with 1% osmium tetroxide in 0.1 M cacodylate buffer for 1 hour, rinsed in ddH20, dehydrated in increasing serial dilutions of ethanol (70%, 85%, 95%, 100%×2) for 10 min each, put in propylene oxide (intermediate solvent) for 2×10 min, incubated in propylene oxide/Spurr's resin (1:1 mix) for 1 h, and then in Spurr's resin overnight. The blocks were put in a fresh change of resin in flat embedding molds the next day and polymerized overnight at 60° C. The blocks were sectioned at 1 μm using a Leica Ultracut UCT ultramicrotome. […]
# [3] = NSCs, 48 hrs, growth media lacking exogenous differentiation cytokines
# [4] = GIcNAc only after cuprizone stopped, wildtype 2 weeks, Mgat5+/- 1 or 4 weeks
# [5] = Mgat5+/- mice, 4 weeks GIcNAc after 5 weeks cuprizone
# [6] = wildtype mice, GIcNAc during final 3 weeks of 6-week cuprizone exposure
smiles,measurement,setting,value
"CC(=O)N[C@H]1C(O)O[C@H](CO)[C@@H](O)[C@@H]1O (some centres unmarked) [GIcNAc, N-acetylglucosamine]",NSC differentiation to O4+ pre-oligodendrocytes,[1]; GIcNAc combined with PDGF-AA (differentiation media),enhanced
same,"initiating oligodendrogenesis, compared with PDGF-AA differentiation media",[1]; GIcNAc in growth media vs differentiation media with exogenous PDGF-AA,more potent than differentiation media containing exogenous PDGF-AA
same,"pre-oligodendrocyte differentiation (OLIG2 expression, numbers of O4 and GalC positive cells)","[1]; NSCs, 48 hrs, growth media",promoted
same,N-glycan branching (L-PHA flow cytometry),[1]; [3],significantly increased
same,PDGFRα surface expression,[1]; [3],significantly increased
same,"development of pre-oligodendrocytes (PDGFRα O4+), double staining","[1]; NSCs, growth media",promoted development
same,number of OPC's (PDGFRα+O4−),"[1]; NSCs, growth media",no change
same,degraded MBP (dMBP)/myelin degeneration in the corpus callosum,[2]; [4],reducing
same,levels of MBP in the corpus callosum,[2]; [4],enhanced
same,levels of myelin (fluoromyelin) in the corpus callosum,[2]; [4],enhanced
same,mature oligodendrocytes (CC1 Olig2+) in the corpus callosum,[2]; [4],enhanced
same,axon loss (electron microscopy),[2]; [5],reducing
same,"degree of myelination (g-ratio, electron microscopy)",[2]; [5],enhanced
same,number of degenerating and dystrophic/swollen axons (electron microscopy),[2]; [5],reducing
same,number of myelinated axons (electron microscopy),[2]; [5],enhanced
same,number of paranodes (electron microscopy),[2]; [5],enhanced
same,"increase in fluoromyelin staining, 4 versus 1 week of GIcNAc treatment","[2]; Mgat5+/- mice, recovery phase",~2 fold
same,motor function (rotarod fall latency),"[2]; wildtype mice, GIcNAc during final 3 weeks of 6-week cuprizone (0.2%) exposure",prevented loss of motor function
same,MBP levels in the corpus callosum,[2]; [6],increasing
same,"axonal damage (accumulation of amyloid precursor protein, APP) in the corpus callosum",[2]; [6],reducing

# Source: patent publication US20240415858A1, “PROMOTING MYELINATION BY N-ACETYLGLUCOSAMINE AND MODULATION OF N-GLYCAN BRANCHING” (THE REGENTS OF THE UNIVERSITY OF CALIFORNIA, priority 2021, published 2024)
